Data: patent US20230085307A1, “PYRIDAZINONE COMPOUND AND HERBICIDE” (NISSAN CHEMICAL CORPORATION, priority 2019, published 2023)

How the values were obtained:
barnyard grass [1] = assay: Test Example 3: herbicidal effect by foliage application, Wagner pot (Table 18, symbol H); type: in vivo, barnyard grass (Echinochloa crus-galli); conditions: for herbicidal effect on barnyard grass (H): 320 g/ha
Experimental: (§1) [Test Example 3] Herbicidal Effect Test by Foliage Application After alluvial soil was placed into 1/10000 are of Wagner pot, water was poured and mixed to form a submerged condition having a water depth of 0.1 cm to 0.5 cm. Seeds of barnyard grass, Chinese sprangletop, rice flat sedge, and rice were sowed and the pot was placed in a greenhouse at 25° C. to 30° C. for growth of the plants. After 14-day growth of the plants, the emulsion agent of the compound of the present invention prepared according to Formulation Example 2 was diluted with water so as to achieve a predetermined herbicide amount, and the diluted emulsion agent was uniformly applied to a foliage part with a small-sized spray. Three weeks after the herbicide application, the effect of the herbicide on each plant was evaluated according to the criteria of Test Example 1.

Chinese sprangletop = assay: Test Example 3: herbicidal effect by foliage application, Wagner pot (Table 18, symbol D); type: in vivo, chinese sprangletop (Leptochloa chinensis); conditions: for herbicidal effect on Chinese sprangletop (D): 320 g/ha
Experimental: as §1

rice flat sedge = assay: Test Example 3: herbicidal effect by foliage application, Wagner pot (Table 18, symbol E); type: in vivo, rice flat sedge (Cyperus iria); conditions: for herbicidal effect on rice flat sedge (E): 320 g/ha
In short: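 Plants were sown in alluvial soil held under 0.1–0.5 cm standing water and grown 14 days in a greenhouse at 25–30 °C. An emulsifiable formulation, water-diluted to the set dose, was then sprayed onto the foliage, and effects were scored three weeks later using previously defined criteria.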

southern crabgrass = assay: Test Example 5: herbicidal effect by foliage application, plastic box (Table 20, symbol F); type: in vivo, southern crabgrass (Digitaria ciliaris); conditions: foliage application, 320 g/ha, three weeks after application
In short: (§2)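 Sow seeds spot-wise in sterilized diluvial soil; cover with ~1.5 cm soil. Grow 14 days in greenhouse, 25° C. to 30° C. Spray foliage with emulsion diluted to predetermined amount. Rate effect after 3 weeks.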

green foxtail = assay: Test Example 5: herbicidal effect by foliage application, plastic box (Table 20, symbol G); type: in vivo, green foxtail (Setaria viridis); conditions: foliage application, 320 g/ha, three weeks after application
Description: (§3) [Test Example 5] Herbicidal Effect Test by Foliage Application
(§4) Sterilized diluvial soil was placed in a plastic box having a length of 21 cm, a width of 13 cm, and a depth of 7 cm. The seeds of each of southern crabgrass, green foxtail, barnyard grass, wild oat, blackgrass, Italian ryegrass, windgrass, velvetleaf, redroot pigweed, lambsquarters, chickweed, false cleavers, persian speedwell, corn, soybean, rice, wheat, beet, and rapeseed were sowed in a spot-like manner and covered with the soil having a thickness of about 1.5 cm. Thereafter, the plants were grown in a greenhouse at 25° C. to 30° C. After 14-day growth of the plants, the emulsion agent of the compound of the present invention prepared according to Formulation Example 2 was diluted with water so as to achieve a predetermined herbicide amount, and the diluted emulsion agent was uniformly applied to a foliage part with a small-sized spray. Three weeks after the herbicide application, the effect of the herbicide on each plant was evaluated according to the criteria of Test Example 1.

barnyard grass [2] = assay: Test Example 5: herbicidal effect by foliage application, plastic box (Table 20, symbol H); type: in vivo, barnyard grass (Echinochloa crus-galli); conditions: foliage application, 320 g/ha, three weeks after application
In short: as §2

wild oat = assay: Test Example 5: herbicidal effect by foliage application, plastic box (Table 20, symbol I); type: in vivo, wild oat (Avena fatua); conditions: foliage application, 320 g/ha, three weeks after application
In short: as §2

blackgrass = assay: Test Example 5: herbicidal effect by foliage application, plastic box (Table 20, symbol J); type: in vivo, blackgrass (Alopecurus myosuroides); conditions: foliage application, 320 g/ha, three weeks after application
In short: as §2

Italian ryegrass = assay: Test Example 5: herbicidal effect by foliage application, plastic box (Table 20, symbol K); type: in vivo, Italian ryegrass (Lolium multiflorum); conditions: foliage application, 320 g/ha, three weeks after application
In short: as §2

windgrass = assay: Test Example 5: herbicidal effect by foliage application, plastic box (Table 20, symbol L); type: in vivo, windgrass (Apera spica-venti); conditions: foliage application, 320 g/ha, three weeks after application
Description: as §3, §4

velvetleaf = assay: Test Example 5: herbicidal effect by foliage application, plastic box (Table 20, symbol M); type: in vivo, velvetleaf (Abutilon theophrasti); conditions: foliage application, 320 g/ha, three weeks after application
In short: as §2

lambsquarters = assay: Test Example 5: herbicidal effect by foliage application, plastic box (Table 20, symbol O); type: in vivo, lambsquarters (Chenopodium album); conditions: foliage application, 320 g/ha, three weeks after application
In short: as §2

persian speedwell = assay: Test Example 5: herbicidal effect by foliage application, plastic box (Table 20, symbol R); type: in vivo, Persian speedwell (Veronica persica); conditions: foliage application, 320 g/ha, three weeks after application
Description: as §3, §4

[3] = amount of applied herbicide 320 g/ha

Question: With `COc1cc2sc(-c3ccc(F)cc3OC)c(-c3c(O)c(C)nn(C)c3=O)c2cc1Cl` [5-075] as the compound, how does the “herbicidal effect on barnyard grass (H)” value (barnyard grass [1]) read?
Answer: 5 (Herbicidal rate of 90% or more (almost completely withered))

Question: What about the “herbicidal effect on Chinese sprangletop (D)” value (Chinese sprangletop) of the same compound?
Answer: 3 (Herbicidal rate of 40% or more and less than 70%)

Question: What about the “herbicidal effect on rice flat sedge (E)” value (rice flat sedge) of the same compound?
Answer: 3 (Herbicidal rate of 40% or more and less than 70%)

Question: And the “herbicidal effect on southern crabgrass (F)” value (from here on “herbicidal effect … (F)”) (southern crabgrass)?
Answer: 3 (Herbicidal rate of 40% or more and less than 70%)

Question: And the “herbicidal effect on green foxtail (G)” value (green foxtail)?
Answer: 5 (Herbicidal rate of 90% or more (almost completely withered))

Question: And the “herbicidal effect on barnyard grass (H)” value (barnyard grass [2])?
Answer: 4 (Herbicidal rate of 70% or more and less than 90%)

Question: What about the “herbicidal effect on wild oat (I)” value (wild oat) of the same compound?
Answer: 0 (Herbicidal rate of 5% or less (almost no effect))

Question: And the “herbicidal effect on blackgrass (J)” value (blackgrass)?
Answer: 3 (Herbicidal rate of 40% or more and less than 70%)

Question: What about the “herbicidal effect on Italian ryegrass (K)” value (“herbicidal effect … (K)” below) (Italian ryegrass) of the same compound?
Answer: 0 (Herbicidal rate of 5% or less (almost no effect))

Question: And the “herbicidal effect on windgrass (L)” value (windgrass)?
Answer: 3 (Herbicidal rate of 40% or more and less than 70%)

Question: And the “herbicidal effect on velvetleaf (M)” value (velvetleaf)?
Answer: 0 (Herbicidal rate of 5% or less (almost no effect))

Question: And the “herbicidal effect on lambsquarters (O)” value (lambsquarters)?
Answer: 4 (Herbicidal rate of 70% or more and less than 90%)

Question: And the “herbicidal effect on persian speedwell (R)” value (shortened to “herbicidal effect … (R)”) (persian speedwell)?
Answer: 4 (Herbicidal rate of 70% or more and less than 90%)

Question: For `CCOc1ccccc1-c1oc2ccc(Cl)cc2c1-c1c(O)c(C)nn(C)c1=O` [9-003], which “Herbicidal effect on H (barnyard grass), foliage application” value (barnyard grass [1]; [3]) is on record?
Answer: 3 (Herbicidal rate of 40% or more and less than 70%)

Question: What about the “Herbicidal effect on D (Chinese sprangletop), foliage application” value (Chinese sprangletop; [3]) of the same compound?
Answer: 0 (Herbicidal rate of 5% or less (almost no effect))

Question: And the “Herbicidal effect on E (rice flat sedge), foliage application” value (rice flat sedge; [3])?
Answer: 1 (Herbicidal rate of 5% or more and less than 20%)

Question: And the “herbicidal effect … (F)” value (southern crabgrass)?
Answer: 0 (Herbicidal rate of 5% or less (almost no effect))

Question: And the “herbicidal effect on green foxtail (G)” value (green foxtail)?
Answer: 0 (Herbicidal rate of 5% or less (almost no effect))

Question: And the “herbicidal effect on barnyard grass (H)” value (barnyard grass [2])?
Answer: 0 (Herbicidal rate of 5% or less (almost no effect))

Question: And the “herbicidal effect on wild oat (I)” value (wild oat)?
Answer: 0 (Herbicidal rate of 5% or less (almost no effect))

Question: And the “herbicidal effect on blackgrass (J)” value (blackgrass)?
Answer: 0 (Herbicidal rate of 5% or less (almost no effect))

Question: What about the “herbicidal effect … (K)” value (Italian ryegrass) of the same compound?
Answer: 0 (Herbicidal rate of 5% or less (almost no effect))

Question: What about the “herbicidal effect on windgrass (L)” value (windgrass) of the same compound?
Answer: 0 (Herbicidal rate of 5% or less (almost no effect))

Question: And the “herbicidal effect on velvetleaf (M)” value (velvetleaf)?
Answer: 3 (Herbicidal rate of 40% or more and less than 70%)

Question: What about the “herbicidal effect on lambsquarters (O)” value (lambsquarters) of the same compound?
Answer: 0 (Herbicidal rate of 5% or less (almost no effect))

Question: And the “herbicidal effect … (R)” value (persian speedwell)?
Answer: 3 (Herbicidal rate of 40% or more and less than 70%)

Question: `CCCC(=O)Oc1c(C)nn(C)c(=O)c1-c1c(-c2ccc(F)cc2)sc2cc(OC)c(OC)cc12` [5-058] was tested. Which “herbicidal effect on barnyard grass (H)” value (barnyard grass [1]) did it give?
Answer: 0 (Herbicidal rate of 5% or less (almost no effect))

Question: And the “herbicidal effect on Chinese sprangletop (D)” value (Chinese sprangletop)?
Answer: 0 (Herbicidal rate of 5% or less (almost no effect))

Question: What about the “herbicidal effect on rice flat sedge (E)” value (rice flat sedge) of the same compound?
Answer: 3 (Herbicidal rate of 40% or more and less than 70%)

Question: What about the “herbicidal effect … (F)” value (southern crabgrass) of the same compound?
Answer: 0 (Herbicidal rate of 5% or less (almost no effect))

Question: And the “herbicidal effect on green foxtail (G)” value (green foxtail)?
Answer: 0 (Herbicidal rate of 5% or less (almost no effect))

Question: And the “herbicidal effect on barnyard grass (H)” value (barnyard grass [2])?
Answer: 0 (Herbicidal rate of 5% or less (almost no effect))

Question: And the “herbicidal effect on wild oat (I)” value (wild oat)?
Answer: 0 (Herbicidal rate of 5% or less (almost no effect))

Question: What about the “herbicidal effect on blackgrass (J)” value (blackgrass) of the same compound?
Answer: 0 (Herbicidal rate of 5% or less (almost no effect))

Question: What about the “herbicidal effect … (K)” value (Italian ryegrass) of the same compound?
Answer: 1 (Herbicidal rate of 5% or more and less than 20%)

Question: And the “herbicidal effect on windgrass (L)” value (windgrass)?
Answer: 0 (Herbicidal rate of 5% or less (almost no effect))

Question: What about the “herbicidal effect on velvetleaf (M)” value (velvetleaf) of the same compound?
Answer: 0 (Herbicidal rate of 5% or less (almost no effect))

Question: What about the “herbicidal effect on lambsquarters (O)” value (lambsquarters) of the same compound?
Answer: 0 (Herbicidal rate of 5% or less (almost no effect))

Question: And the “herbicidal effect … (R)” value (persian speedwell)?
Answer: 0 (Herbicidal rate of 5% or less (almost no effect))
